# Source: patent publication US20060128015A1, “Small hepatocyte-rich colonies, process for preparing the colonies, process for maturating the colonies into liver tissue and method of estimating effects of drug by using matured small hepatocyte-rich colonies” (priority 2001, published 2006)
# Like-named read-outs stand apart in the source and are kept apart here.
# What was measured:
# [1] = system: CYP3A2; assay: CYP3A2 induction capacity in matured small hepatocyte-rich colonies (Western blot); type: cell-based, rat; details: 24 hours, matured hepatocytes = 100%, control (0.5% ethanol) 94.9
# Protocol: (§1) About 200 to 250/cm^2 of the small hepatocyte colonies prepared in Example 2 were placed on a culture dish (diameter: 60 mm).
# (§2) After the culture in a culture medium (1) (DMEM, 10% FBS, 10 mM nicotinamide, 1 mM ascorbic acid 2-phosphate, 10 ng/ml EGF, 10^−7 M dexamethasone, 0.5 μg/ml insulin, penicillin and streptomycin) for 12 to 24 hours, the culture medium was exchanged with a serum-free culture medium (2) (DMEM, 10 mM nicotinamide, 1 mM ascorbic acid 2-phosphate, 10 ng/ml EGF, 10^−7 M dexamethasone, 0.5 μg/ml insulin, penicillin, streptomycin and 1% DMSO). After the culture for additional 10 days while the culture medium was exchanged every other day, Matrigel diluted to 500 μg/ml with the culture medium was placed on the cells. 48 hours after the addition of Matrigel, the culture medium was exchanged, and the culture was continued by using DMSO-free culture medium (2) for 4 days. 6 days after the addition of Matrigel, drugs shown in the following Tables 3 to 6 were added in a concentration shown in the same Tables thereto, respectively. 24 hours after the addition of the drug, the cells were recovered.
# (§3) After the proteins were separated with 10% SDS-PAGE, the intended protein was stained on the membrane by Western blot. The intensity of the band on the blot was digitized by a densitometer.
# (§4) The primary antibodies used were goat anti-CYP2B 1 antibody (diluted to 1/300), goat anti-CYP3A2 antibody (diluted to 1/300), goat anti-CYP2E1 antibody (diluted to 1/1000) and goat anti-CYP4A1 antibody (diluted to 1/1000) (all bought from Daiichi Kagaku Yakuhin). The secondary antibodies were HRP-conjugated anti-goat/sheep Ig (diluted to 1/5000) bought from DAKO. The chromogenic substrate was Super Signal West Dura (chemiluminescence) purchased from Pierce.
# (§5) Tables 3 to 6 show the relative activity of each enzyme as the induction capacity of each drug for the enzyme, wherein the activity of each enzyme in matured hepatocytes is defined as 100%. Pregnenolone was used in the form of a solution containing 0.5% ethanol, and clofibrate was used in the form of a solution containing 0.5% DMSO.
# [2] = system: CYP2E1; details: 24 hours after addition, matured hepatocytes = 100%, 0 mM gave 74.1
# Protocol: as §1, §2, §3, §4, §5
# [3] = system: CYP4A1; assay: CYP4A1 induction capacity in matured small hepatocyte-rich colonies (Western blot); type: cell-based, rat; details: 24 hours, matured hepatocytes = 100%, control (0.5% DMSO) 74.1
# [4] = system: CYP2B1; assay: CYP2B1 induction capacity in matured small hepatocyte-rich colonies (Western blot); type: cell-based, rat; details: 24 hours after addition, matured hepatocytes = 100%, 0 mM gave 30.8
smiles,measurement,setting,value
CC(=O)[C@H]1CC[C@H]2[C@@H]3CC=C4C[C@@H](O)CC[C@]4(C)[C@H]3CC[C@]12C [Pregnenolone],CYP3A2 induction capacity (%),[1]; 0.5 × 10^−3 mM in 0.5% ethanol,115.5%
same,CYP3A2 induction capacity (%),[1]; 1.0 × 10^−3 mM in 0.5% ethanol,141.0%
same,CYP3A2 induction capacity (%),[1]; 2.0 × 10^−3 mM in 0.5% ethanol,148.1%
same,CYP3A2 induction capacity (%),[1]; 5.0 × 10^−3 mM in 0.5% ethanol,153.2%
CCO [Ethanol],CYP2E1 induction capacity (%),[2]; 250 mM,76.5%
same,CYP2E1 induction capacity (%),[2]; 500 mM,82.4%
same,CYP2E1 induction capacity (%),[2]; 750 mM,98.8%
same,CYP2E1 induction capacity (%),[2]; 1000 mM,86.4%
CCOC(=O)C(C)(C)Oc1ccc(Cl)cc1 [Clofibrate],CYP4A1 induction capacity (%),[3]; 0.1 mM in 0.5% DMSO,76.5%
same,CYP4A1 induction capacity (%),[3]; 0.25 mM in 0.5% DMSO,82.4%
same,CYP4A1 induction capacity (%),[3]; 0.5 mM in 0.5% DMSO,98.8%
same,CYP4A1 induction capacity (%),[3]; 0.75 mM in 0.5% DMSO,86.4%
CCC1(c2ccccc2)C(=O)NC(=O)NC1=O [Phenobarbital],CYP2B1 induction capacity (%),[4]; 0.75 mM,37.4%
same,CYP2B1 induction capacity (%),[4]; 1.5 mM,47.9%
same,CYP2B1 induction capacity (%),[4]; 3.0 mM,46.9%
same,CYP2B1 induction capacity (%),[4]; 4.5 mM,55.0%
